According to ChEMBL document CHEMBL5316338, “Discovery of Novel PTP1B Inhibitors with Once-Weekly Therapeutic Potential for Type 2 Diabetes: Design, Synthesis, and In Vitro and In Vivo Investigations of BimBH3 Peptide Analogues” (J Med Chem, 2023):
Square brackets hold non-standard residues; d marks the D form. Peptide text beside a SMILES is read from it. * marks the point of attachment. ξ: configuration not given here. C19 diacid = O=C(O)CCCCCCCCCCCCCCCCCC(=O)*; C15 diacid = O=C(O)CCCCCCCCCCCCCC(=O)*; Pentanoyl(5-Ph) = O=C(CCCCc1ccccc1)*; C12 diacid = O=C(O)CCCCCCCCCCC(=O)*; ξR = N=C(N)NCCCC(N)C(=O)O; Octanoyl = CCCCCCCC(=O)*; Aun = NCCCCCCCCCCC(=O)O; Propionyl = CCC(=O)*; Butyryl = CCCC(=O)*

These compounds were tested against T1, Tyrosine-protein phosphatase non-receptor type 1 (Homo sapiens) (UniProt P18031) (assay: Inhibition of N-terminal His tagged recombinant human PTP1B expressed in Escherichia coli using pNPP as substrate assessed as substrate hydrolysis at 40 umol/L relative to control). Conditions: dose 40.0 µmol/L.
T1 sequence (whole entry): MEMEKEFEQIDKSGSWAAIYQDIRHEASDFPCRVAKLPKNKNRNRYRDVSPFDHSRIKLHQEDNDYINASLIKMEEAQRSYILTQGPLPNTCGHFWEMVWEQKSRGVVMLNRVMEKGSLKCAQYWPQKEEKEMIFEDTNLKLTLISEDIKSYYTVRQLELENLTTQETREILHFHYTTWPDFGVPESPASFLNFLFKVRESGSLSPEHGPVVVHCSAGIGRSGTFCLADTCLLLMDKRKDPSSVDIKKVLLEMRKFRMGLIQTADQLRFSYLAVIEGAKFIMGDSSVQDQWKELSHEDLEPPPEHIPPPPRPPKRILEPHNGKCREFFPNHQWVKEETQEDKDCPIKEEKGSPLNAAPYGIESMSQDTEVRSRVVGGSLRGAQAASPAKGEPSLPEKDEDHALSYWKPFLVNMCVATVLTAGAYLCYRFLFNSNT

inhibition [%] | SMILES
< 50 | CCCC(=O)N[C@H](C(=O)N[C@@H](C)C(=O)N[C@@H](CCC(N)=O)C(=O)N[C@@H](CCC(=O)O)C(=O)N[C@@H](CC(C)C)C(=O)N[C@@H](CCCNC(=N)N)C(=O)N[C@@H](CCCNC(=N)N)C(=O)N[C@H](C(=O)NCC(=O)N[C@@H](CC(=O)O)C(=O)N[C@@H](CCC(=O)O)C(=O)N[C@@H](Cc1ccccc1)C(=O)O)[C@@H](C)CC)[C@@H](C)CC (Butyryl-IAQELRRIGDEF-OH)
> 50 | CC[C@H](C)[C@H](NC(=O)CCCCCCCCCCCCCC(=O)O)C(=O)N[C@@H](C)C(=O)N[C@@H](CCC(N)=O)C(=O)N[C@@H](CCC(=O)O)C(=O)N[C@@H](CC(C)C)C(=O)N[C@@H](CCCNC(=N)N)C(=O)N[C@@H](CCCNC(=N)N)C(=O)N[C@H](C(=O)NCC(=O)N[C@@H](CC(=O)O)C(=O)N[C@@H](CCC(=O)O)C(=O)N[C@@H](Cc1ccccc1)C(=O)O)[C@@H](C)CC ({C15 diacid}-IAQELRRIGDEF-OH)
> 50 | CC[C@H](C)[C@H](NC(=O)CCCCCCCCCCCCCCCCCC(=O)O)C(=O)N[C@@H](C)C(=O)N[C@@H](CCC(N)=O)C(=O)N[C@@H](CCC(=O)O)C(=O)N[C@@H](CC(C)C)C(=O)N[C@@H](CCCNC(=N)N)C(=O)NC(CCCNC(=N)N)C(=O)N[C@H](C(=O)NCC(=O)N[C@@H](CC(=O)O)C(=O)N[C@@H](CCC(=O)O)C(=O)N[C@@H](Cc1ccccc1)C(=O)O)[C@@H](C)CC (stereo partly drawn) ({C19 diacid}-IAQELR[ξR]IGDEF-OH)
> 50 | CCCCCCCCCCCCCCCC(=O)N[C@@H](CCC(=O)N[C@H](C(=O)N[C@@H](C)C(=O)N[C@H](CCC(N)=O)C(=O)N[C@@H](CCC(=O)O)C(=O)N[C@@H](CC(C)C)C(=O)N[C@@H](CCCNC(=N)N)C(=O)N[C@@H](CCCNC(=N)N)C(=O)N[C@H](C(=O)NCC(=O)N[C@@H](CC(=O)O)C(=O)N[C@@H](CCC(=O)O)C(=O)N[C@@H](Cc1ccccc1)C(=O)O)[C@@H](C)CC)[C@@H](C)CC)C(=O)O
< 50 | CC[C@H](C)[C@H](NC(=O)CCCCc1ccccc1)C(=O)N[C@@H](C)C(=O)N[C@@H](CCC(N)=O)C(=O)N[C@@H](CCC(=O)O)C(=O)N[C@@H](CC(C)C)C(=O)N[C@@H](CCCNC(=N)N)C(=O)N[C@@H](CCCNC(=N)N)C(=O)N[C@H](C(=O)NCC(=O)N[C@@H](CC(=O)O)C(=O)N[C@@H](CCC(=O)O)C(=O)N[C@@H](Cc1ccccc1)C(=O)O)[C@@H](C)CC ({Pentanoyl(5-Ph)}-IAQELRRIGDEF-OH)
< 50 | CCCCCCCC(=O)N[C@H](C(=O)N[C@@H](C)C(=O)N[C@@H](CCC(N)=O)C(=O)N[C@@H](CCC(=O)O)C(=O)N[C@@H](CC(C)C)C(=O)N[C@@H](CCCNC(=N)N)C(=O)N[C@@H](CCCNC(=N)N)C(=O)N[C@H](C(=O)NCC(=O)N[C@@H](CC(=O)O)C(=O)N[C@@H](CCC(=O)O)C(=O)N[C@@H](Cc1ccccc1)C(=O)O)[C@@H](C)CC)[C@@H](C)CC (Octanoyl-IAQELRRIGDEF-OH)
< 50 | CC[C@H](C)[C@H](NC(=O)CCCCCCCCCCC(=O)O)C(=O)N[C@@H](C)C(=O)N[C@@H](CCC(N)=O)C(=O)N[C@@H](CCC(=O)O)C(=O)N[C@@H](CC(C)C)C(=O)N[C@@H](CCCNC(=N)N)C(=O)N[C@@H](CCCNC(=N)N)C(=O)N[C@H](C(=O)NCC(=O)N[C@@H](CC(=O)O)C(=O)N[C@@H](CCC(=O)O)C(=O)N[C@@H](Cc1ccccc1)C(=O)O)[C@@H](C)CC ({C12 diacid}-IAQELRRIGDEF-OH)
< 50 | CC[C@H](C)[C@H](NC(=O)CCCCCCCCCCN)C(=O)N[C@@H](C)C(=O)N[C@@H](CCC(N)=O)C(=O)N[C@@H](CCC(=O)O)C(=O)N[C@@H](CC(C)C)C(=O)N[C@@H](CCCNC(=N)N)C(=O)N[C@@H](CCCNC(=N)N)C(=O)N[C@H](C(=O)NCC(=O)N[C@@H](CC(=O)O)C(=O)N[C@@H](CCC(=O)O)C(=O)N[C@@H](Cc1ccccc1)C(=O)O)[C@@H](C)CC (H-[Aun]IAQELRRIGDEF-OH)
< 50 | CCC(=O)N[C@H](C(=O)N[C@@H](C)C(=O)N[C@@H](CCC(N)=O)C(=O)N[C@@H](CCC(=O)O)C(=O)N[C@@H](CC(C)C)C(=O)N[C@@H](CCCNC(=N)N)C(=O)N[C@@H](CCCNC(=N)N)C(=O)N[C@H](C(=O)NCC(=O)N[C@@H](CC(=O)O)C(=O)N[C@@H](CCC(=O)O)C(=O)N[C@@H](Cc1ccccc1)C(=O)O)[C@@H](C)CC)[C@@H](C)CC (Propionyl-IAQELRRIGDEF-OH)
< 50 | CC[C@H](C)[C@H](NC(=O)CCCCCCCCC(=O)O)C(=O)N[C@@H](C)C(=O)N[C@@H](CCC(N)=O)C(=O)N[C@@H](CCC(=O)O)C(=O)N[C@@H](CC(C)C)C(=O)N[C@@H](CCCNC(=N)N)C(=O)N[C@@H](CCCNC(=N)N)C(=O)N[C@H](C(=O)NCC(=O)N[C@H](CC(=O)O)C(=O)N[C@@H](CCC(=O)O)C(=O)N[C@@H](Cc1ccccc1)C(=O)O)[C@@H](C)CC

The compounds below were run against T2, Tyrosine-protein phosphatase non-receptor type 1 (Homo sapiens, UniProt P18031) (assay: Inhibition of N-terminal His tagged recombinant human PTP1B expressed in Escherichia coli using pNPP as substrate assessed as substrate hydrolysis). Conditions: not given.
T2 sequence (P18031 whole entry): T1 sequence (whole entry)

IC50 [nM] | SMILES
1540 | CC[C@H](C)[C@H](NC(=O)CCCCCCCCCCCCCC(=O)O)C(=O)N[C@@H](C)C(=O)N[C@@H](CCC(N)=O)C(=O)N[C@@H](CCC(=O)O)C(=O)N[C@@H](CC(C)C)C(=O)N[C@@H](CCCNC(=N)N)C(=O)N[C@@H](CCCNC(=N)N)C(=O)N[C@H](C(=O)NCC(=O)N[C@@H](CC(=O)O)C(=O)N[C@@H](CCC(=O)O)C(=O)N[C@@H](Cc1ccccc1)C(=O)O)[C@@H](C)CC ({C15 diacid}-IAQELRRIGDEF-OH)
1270 | CC[C@H](C)[C@H](NC(=O)CCCCCCCCCCCCCCCCCC(=O)O)C(=O)N[C@@H](C)C(=O)N[C@@H](CCC(N)=O)C(=O)N[C@@H](CCC(=O)O)C(=O)N[C@@H](CC(C)C)C(=O)N[C@@H](CCCNC(=N)N)C(=O)NC(CCCNC(=N)N)C(=O)N[C@H](C(=O)NCC(=O)N[C@@H](CC(=O)O)C(=O)N[C@@H](CCC(=O)O)C(=O)N[C@@H](Cc1ccccc1)C(=O)O)[C@@H](C)CC (stereo partly drawn) ({C19 diacid}-IAQELR[ξR]IGDEF-OH)
4350 | CCCCCCCCCCCCCCCC(=O)N[C@@H](CCC(=O)N[C@H](C(=O)N[C@@H](C)C(=O)N[C@H](CCC(N)=O)C(=O)N[C@@H](CCC(=O)O)C(=O)N[C@@H](CC(C)C)C(=O)N[C@@H](CCCNC(=N)N)C(=O)N[C@@H](CCCNC(=N)N)C(=O)N[C@H](C(=O)NCC(=O)N[C@@H](CC(=O)O)C(=O)N[C@@H](CCC(=O)O)C(=O)N[C@@H](Cc1ccccc1)C(=O)O)[C@@H](C)CC)[C@@H](C)CC)C(=O)O
